In patent US8835462B2, “Macrocyclic picolinamides as fungicides” (Dow AgroSciences LLC, priority 2012, dated 2014):

Assays:
[1] = tested on: Cochliobolus sativus; test: Spot blotch of barley (COCHSA) fungicidal activity; type: in vivo; conditions: 100 ppm, 1 Day Protectant
Experimental: Technical grades of materials were dissolved in acetone, which were then mixed with nine volumes of water containing 110 ppm Triton X-100. The fungicide solutions were applied onto wheat seedlings using an automated booth sprayer to run-off. All sprayed plants were allowed to air dry prior to further handling. Wheat plants (variety Yuma) were grown from seed in a greenhouse in 50% mineral soil/50% soil-less Metro mix until the first leaf was fully emerged, with 7-10 seedlings per pot. These plants were inoculated with an aqueous spore suspension of Septoria tritici either prior to or after fungicide treatments. After inoculation the plants were kept in 100% relative humidity (one day in a dark dew chamber followed by two to three days in a lighted dew chamber at 20° C.) to permit spores to germinate and infect the leaf. The plants were then transferred to a greenhouse set at 20° C. for disease to develop. When disease symptoms were fully expressed on the 1st leaves of untreated plants, infection levels were assessed on a scale of 0 to 100 percent disease severity. Percent disease control was calculated using the ratio of disease severity on treated plants relative to untreated plants. Evaluation of Fungicidal Activity: Spot Blotch of Barley (Cochliobolus Sativus; Bayer Code COCHSA) Barley seedlings (variety Harrington) were propagated in soil-less Metro mix, with each pot having 8 to 12 plants, and used for testing when first leaf was fully emerged. Test plants were inoculated with a spore suspension of Cochliobolus sativus 24 hr after fungicide treatments. After inoculation the plants were placed in a dark dew room with 100% RH and temperature of 22° C. for 48 hr. The plants were then kept in a greenhouse set at 24° C. until disease fully developed. Fungicide formulation, application and disease assessment followed the procedures as described in the Example A.

[2] = tested on: Rhyncosporium secalis; test: Barley scald (RHYNSE) fungicidal activity; type: in vivo; conditions: 100 ppm, 1 Day Protectant
Experimental: Technical grades of materials were dissolved in acetone, which were then mixed with nine volumes of water containing 110 ppm Triton X-100. The fungicide solutions were applied onto wheat seedlings using an automated booth sprayer to run-off. All sprayed plants were allowed to air dry prior to further handling. Wheat plants (variety Yuma) were grown from seed in a greenhouse in 50% mineral soil/50% soil-less Metro mix until the first leaf was fully emerged, with 7-10 seedlings per pot. These plants were inoculated with an aqueous spore suspension of Septoria tritici either prior to or after fungicide treatments. After inoculation the plants were kept in 100% relative humidity (one day in a dark dew chamber followed by two to three days in a lighted dew chamber at 20° C.) to permit spores to germinate and infect the leaf. The plants were then transferred to a greenhouse set at 20° C. for disease to develop. When disease symptoms were fully expressed on the 1st leaves of untreated plants, infection levels were assessed on a scale of 0 to 100 percent disease severity. Percent disease control was calculated using the ratio of disease severity on treated plants relative to untreated plants. Evaluation of Fungicidal Activity: Barley Scald (Rhyncosporium Secalis; Bayer Code […]) Barley seedlings (variety Harrington) were propagated in soil-less Metro mix, with each pot having 8 to 12 plants, and used in the test when first leaf was fully emerged. Test plants were inoculated by an aqueous spore suspension of Rhyncosporium secalis 24 hr after fungicide treatments. After inoculation the plants were kept in dew room at 20° C. with 100% relative humidity for 48 hr. The plants were then transferred to a greenhouse set at 20° C. for disease to develop. Fungicide formulation, application and disease assessment on the sprayed leaves followed the procedures as described in the Example A.

| Compound | melting point [°C] | Disease Control COCHSA 1DP [1] | Disease Control RHYNSE 1DP [2] |
| --- | --- | --- | --- |
| COc1ccnc(C(=O)N[C@H]2COC[C@H](Cc3ccccc3)[C@@H](OCC(C)C)[C@H](C)OC2=O)c1O [Compound 2, N-((3S,7S,8R,9S)-7-benzyl-8-isobutoxy-9-methyl-2-oxo-1,5-dioxonan-3-yl)-3-hydroxy-4-methoxypicolinamide] | 126 to 128 | – | – |
| COc1ccnc(C(=O)N[C@H]2COC[C@H](Cc3ccccc3)[C@@H](OCC(C)C)[C@H](C)OC2=O)c1OCOC(=O)C(C)C [Compound 3] | 54 to 58 | A (80-100) | – |
| COc1ccnc(C(=O)N[C@H]2COC[C@H](Cc3ccccc3)[C@@H](OCC(C)C)[C@H](C)OC2=O)c1OCOC(=O)C(C)(C)C [Compound 7] | – | B (More than 0-Less than 80) | – |
| COc1ccnc(C(=O)N[C@H]2COC[C@H](Cc3ccccc3)[C@@H](OCC(C)C)[C@H](C)OC2=O)c1OCOC(C)=O [Compound 8, (2-((3S,7S,8R,9S)-7-benzyl-8-isobutoxy-9-methyl-2-oxo-1,5-dioxonan-3-ylcarbamoyl)-4-methoxypyridin-3-yloxy)methyl acetate] | – | B (More than 0-Less than 80) | A (80-100) |
| COc1ccnc(C(=O)N[C@H]2COC[C@H](Cc3ccccc3)[C@@H](OCC(C)C)[C@H](C)OC2=O)c1OC(C)=O [Compound 9, 2-(((3S,7S,8R,9S)-7-benzyl-8-isobutoxy-9-methyl-2-oxo-1,5-dioxonan-3-yl)carbamoyl)-4-methoxypyridin-3-yl acetate] | – | B (More than 0-Less than 80) | – |
| COc1ccnc(C(=O)N[C@H]2COC[C@H](Cc3ccccc3)[C@@H](OCC(C)C)[C@H](C)OC2=O)c1OC(=O)OC(C)C [Compound 10, 2-(((3S,7S,8R,9S)-7-benzyl-8-isobutoxy-9-methyl-2-oxo-1,5-dioxonan-3-yl)carbamoyl)-4-methoxypyridin-3-yl isopropyl carbonate] | – | B (More than 0-Less than 80) | – |
| COc1ccnc(C(=O)N[C@H]2COC[C@H](Cc3ccccc3)[C@@H](OC3CCCC3)[C@H](C)OC2=O)c1OC(C)=O [Compound 107] | – | – | A (80-100) |
| COc1ccnc(C(=O)N[C@H]2COC[C@H](Cc3ccccc3)[C@@H](OC3CCCC3)[C@H](C)OC2=O)c1OCOC(=O)C(C)C [Compound 108] | – | – | A (80-100) |
